We go through nine molecules from ChEMBL document CHEMBL1201862, “PubChem BioAssay data set” (2004).

Test systems include HOP-92; MDA-MB-435; OVCAR-8; NCI-H460; SR; SF-295; SF-539; NCI-H23; M14; U-251; A549; MDA-MB-231; OVCAR-3; SK-MEL-2; SNB-19; RPMI-8226; Hs-578T; IGROV-1; HOP-62; TK-10.
What all share (assay): NCI tumour cell line growth inhibition, 48 h

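Compound exposure: 48 hours, 5 concentrations, 96-well plates. At the GI50, growth is halved.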 Activity calls are given as the source filed them. No stated cut-off is given here; in the data, active = GI50 up to about 1.1 µM and inactive = higher. Where only a bound is given, the exact number is not on record here.

In the case of `N#CNC(=N)Nc1ccc(Cl)cc1`, the GI50 in the experiment with HOP-92, in the experiment on MDA-MB-435, in the experiment with OVCAR-8, in the experiment with NCI-H460, in the experiment on SR and with SF-295 was > 100 µM (inactive) each time. Besides, the GI50 in the experiment on SF-539, in the experiment with NCI-H23, in the experiment with M14, with U-251, in the experiment on A549 and in the experiment on MDA-MB-231 was > 100 µM (inactive) each time. Besides, the GI50 with OVCAR-3, in the experiment with SK-MEL-2, with SNB-19, in the experiment on RPMI-8226, with Hs-578T and in the experiment on IGROV-1 was > 100 µM (inactive) in each case. Further, the GI50 in the experiment on HOP-62 and in the experiment with TK-10 was > 100 µM (inactive) throughout.
For `Cc1ccc(/C=N/Nc2ccccn2)s1`, the GI50 in the experiment on HOP-92, in the experiment on MDA-MB-435, in the experiment on OVCAR-8, with NCI-H460, in the experiment with SR and in the experiment on SF-295 was > 100 µM (inactive) throughout. Besides, the GI50 in the experiment on SF-539 was > 100 µM (inactive); in the experiment with NCI-H23, > 100 µM (inactive); with M14 it was > 100 µM (inactive); in the experiment with U-251 it was > 100 µM (inactive); in the experiment with A549, > 100 µM (inactive); with MDA-MB-231, > 41.1 µM (inactive). For the same molecule, the GI50 with OVCAR-3 is > 55.7 µM (inactive); in the experiment on SK-MEL-2, > 100 µM (inactive); with SNB-19 it was > 100 µM (inactive); in the experiment with RPMI-8226, > 100 µM (inactive); with Hs-578T, > 100 µM (inactive); with IGROV-1, > 100 µM (inactive). Besides, the GI50 with HOP-62 is > 100 µM (inactive); with TK-10, > 31.6 µM (inactive).
`COC(=O)CCC(C)[C@H]1CCC2C3C(C[C@H](OC(C)=O)[C@@]21C)[C@@]1(C)CCC2(C[C@H]1C[C@H]3OC(C)=O)OOC1(CCCC1)OO2` (stereo not given in full): the GI50 with HOP-92 is 9.62 µM (inactive); in the experiment on MDA-MB-435, 29.9 µM (inactive); in the experiment with OVCAR-8 it was 34.4 µM (inactive); in the experiment on NCI-H460 it was 6.82 µM (inactive); in the experiment on SR it was 3.02 µM (inactive); with SF-295, 83.6 µM (inactive). The GI50 with SF-539 was > 100 µM (inactive); in the experiment on NCI-H23, 9.18 µM (inactive); in the experiment with M14, > 100 µM (inactive); in the experiment on U-251, 8.93 µM (inactive); in the experiment with A549 it was 12.9 µM (inactive); in the experiment on MDA-MB-231 it was 43.3 µM (inactive). Moreover, the GI50 was 5.56 µM (inactive) with OVCAR-3; > 100 µM (inactive) with SK-MEL-2; > 100 µM (inactive) in the experiment with SNB-19; 2.47 µM (inactive) in the experiment with RPMI-8226; 16.5 µM (inactive) in the experiment with Hs-578T; 5.6 µM (inactive) in the experiment with IGROV-1. In addition, the figures for the GI50 in the experiment on HOP-62 and in the experiment on TK-10 were 10.3 µM (inactive) and 48.3 µM (inactive), respectively.
`CCOC(=O)c1cn2c(n1)sc1cc(Cl)cc(Cl)c12`: the GI50 in the experiment on HOP-92, with MDA-MB-435, in the experiment on OVCAR-8, in the experiment on NCI-H460, in the experiment on SR and in the experiment with SF-295 was > 100 µM (inactive) each time. Besides, the GI50 with SF-539, with NCI-H23, in the experiment with M14, in the experiment on U-251, in the experiment on A549 and in the experiment with MDA-MB-231 was > 100 µM (inactive) throughout. For the same molecule, the GI50 in the experiment with OVCAR-3, in the experiment on SK-MEL-2, with SNB-19, with RPMI-8226, in the experiment on Hs-578T and with IGROV-1 was > 100 µM (inactive) throughout. Further, the GI50 with HOP-62 and in the experiment on TK-10 was > 100 µM (inactive) each time.
In the case of `COC(=O)C(C)(C)[C@@H]1OC(=O)N(S(=O)(=O)c2c(C)cc(C)cc2C)[C@H]1C(C)C`, the GI50 is 23.1 µM (inactive) in the experiment on HOP-92; > 100 µM (inactive) with MDA-MB-435; > 100 µM (inactive) in the experiment on OVCAR-8; 55 µM (inactive) with NCI-H460; 75.7 µM (inactive) in the experiment with SR; > 100 µM (inactive) in the experiment on SF-295. Also, the GI50 with SF-539 was > 100 µM (inactive); in the experiment with NCI-H23, 46.8 µM (inactive); in the experiment on M14, 88.1 µM (inactive); with U-251 it was > 100 µM (inactive); in the experiment on A549, 85.7 µM (inactive); with MDA-MB-231, > 100 µM (inactive). For the same molecule, the GI50 in the experiment with OVCAR-3 was 89.9 µM (inactive); with SK-MEL-2, 95.7 µM (inactive); in the experiment on SNB-19, > 100 µM (inactive); with RPMI-8226, > 100 µM (inactive); in the experiment on Hs-578T, 43 µM (inactive); in the experiment on IGROV-1 it was > 100 µM (inactive). Besides, the GI50 in the experiment on HOP-62 and in the experiment with TK-10 was > 100 µM (inactive) in each case.
As for `CCCCCCCCOCC1S(=O)(=O)OCCOS1(=O)=O`, the GI50 in the experiment on HOP-92 is > 100 µM (inactive); in the experiment on MDA-MB-435, > 100 µM (inactive); in the experiment with OVCAR-8 it was > 100 µM (inactive); in the experiment on NCI-H460 it was > 100 µM (inactive); with SR, 40.4 µM (inactive); with SF-295, > 100 µM (inactive). The GI50 in the experiment on SF-539, in the experiment with NCI-H23, in the experiment on M14, with U-251, with A549 and with MDA-MB-231 was > 100 µM (inactive) each time. Further, the GI50 with OVCAR-3, in the experiment with SK-MEL-2, in the experiment on SNB-19, in the experiment with RPMI-8226, with Hs-578T and with IGROV-1 was > 100 µM (inactive) throughout. Besides, the GI50 in the experiment with HOP-62 and in the experiment with TK-10 was > 100 µM (inactive) each time.
As to `Cc1oc2c(Cl)cc(O)c(Cl)c2c2cccc1-2`, the GI50 was 14.9 µM (inactive) in the experiment with HOP-92; 20.1 µM (inactive) in the experiment with MDA-MB-435; 23.6 µM (inactive) in the experiment on OVCAR-8; > 100 µM (inactive) in the experiment on NCI-H460; 12.5 µM (inactive) with SR; 31.6 µM (inactive) in the experiment on SF-295. Also, the GI50 with SF-539 was 20.1 µM (inactive); in the experiment on NCI-H23 it was 19.5 µM (inactive); with M14 it was 28.6 µM (inactive); in the experiment on U-251, 18.9 µM (inactive); in the experiment on A549, 28.2 µM (inactive); in the experiment with MDA-MB-231 it was 33.6 µM (inactive). Besides, the GI50 with OVCAR-3 was 18.1 µM (inactive); in the experiment on SK-MEL-2, 33.3 µM (inactive); in the experiment on SNB-19 it was 42.8 µM (inactive); with RPMI-8226 it was 10.4 µM (inactive); in the experiment on Hs-578T, 34.8 µM (inactive); in the experiment with IGROV-1, 23.1 µM (inactive). Besides, the GI50 was 24.2 µM (inactive) with HOP-62 and > 100 µM (inactive) in the experiment with TK-10.
As for `O=C1C=CC(=O)c2c1cc1ccccc1c2O`, the GI50 is 1.8 µM (inactive) with HOP-92; 6.37 µM (inactive) in the experiment on MDA-MB-435; 2.58 µM (inactive) in the experiment with OVCAR-8; 19.1 µM (inactive) in the experiment on NCI-H460; 0.428 µM (active) in the experiment with SR; 17.1 µM (inactive) in the experiment with SF-295. Also, the GI50 with SF-539 was 11.6 µM (inactive); in the experiment on NCI-H23, 13 µM (inactive); in the experiment on M14 it was 10.7 µM (inactive); in the experiment with U-251 it was 14 µM (inactive); in the experiment with A549, 16.7 µM (inactive); in the experiment with MDA-MB-231 it was 2.04 µM (inactive). In addition, the GI50 with OVCAR-3 was 2.12 µM (inactive); with SK-MEL-2 it was 14.4 µM (inactive); in the experiment with SNB-19 it was 19.3 µM (inactive); in the experiment with RPMI-8226, 2.43 µM (inactive); with Hs-578T, 8.22 µM (inactive); with IGROV-1 it was 5.28 µM (inactive). In addition, the GI50 was 16.7 µM (inactive) with HOP-62 and 4.24 µM (inactive) with TK-10.
Turning to `COc1nc(C(Cl)(Cl)Cl)c(Cl)c(OC)c1Cl` [PENCLOMEDINE], the GI50 with HOP-92 was 28.2 µM (inactive); in the experiment with MDA-MB-435, 42.5 µM (inactive); with OVCAR-8 it was 21.2 µM (inactive); in the experiment with NCI-H460 it was 21.9 µM (inactive); with SR it was 37.1 µM (inactive); in the experiment on SF-295 it was 40.2 µM (inactive). Moreover, the GI50 in the experiment with SF-539 is 40.8 µM (inactive); in the experiment with NCI-H23 it was 42.2 µM (inactive); with M14, 40 µM (inactive); with U-251 it was 36.1 µM (inactive); with A549, 40.5 µM (inactive); in the experiment on MDA-MB-231 it was 38.3 µM (inactive). Moreover, the GI50 in the experiment with OVCAR-3 is 38.8 µM (inactive); in the experiment with SK-MEL-2, 35.1 µM (inactive); in the experiment on SNB-19, 27.3 µM (inactive); in the experiment on RPMI-8226 it was 24.1 µM (inactive); in the experiment with Hs-578T, 33.3 µM (inactive); in the experiment with IGROV-1, 14.2 µM (inactive). Further, the GI50 was 12.1 µM (inactive) in the experiment with HOP-62 and 52.6 µM (inactive) in the experiment with TK-10.
